Experimental data taken from patent publication US20260297542A1, “HERBICIDE RESISTANT PLANTS” (SYNGENTA CROP PROTECTION AG, priority 2023, published 2026).
Where a chain is given by its changes, count along the chain named.

Columns and labels:
[1] = target: T1, AtPPO1 S305L L361D V365M (SEQ ID NO.133) (Arabidopsis thaliana, UniProt P55826, S305L/V365M/Y361D); experiment: fluorescent Protoporphyrinogen Oxidase assay, crude extract; format: biochemical; conditions: read-out: percentage inhibition
T1 sequence (P55826 35-537 S305L/Y361D/V365M): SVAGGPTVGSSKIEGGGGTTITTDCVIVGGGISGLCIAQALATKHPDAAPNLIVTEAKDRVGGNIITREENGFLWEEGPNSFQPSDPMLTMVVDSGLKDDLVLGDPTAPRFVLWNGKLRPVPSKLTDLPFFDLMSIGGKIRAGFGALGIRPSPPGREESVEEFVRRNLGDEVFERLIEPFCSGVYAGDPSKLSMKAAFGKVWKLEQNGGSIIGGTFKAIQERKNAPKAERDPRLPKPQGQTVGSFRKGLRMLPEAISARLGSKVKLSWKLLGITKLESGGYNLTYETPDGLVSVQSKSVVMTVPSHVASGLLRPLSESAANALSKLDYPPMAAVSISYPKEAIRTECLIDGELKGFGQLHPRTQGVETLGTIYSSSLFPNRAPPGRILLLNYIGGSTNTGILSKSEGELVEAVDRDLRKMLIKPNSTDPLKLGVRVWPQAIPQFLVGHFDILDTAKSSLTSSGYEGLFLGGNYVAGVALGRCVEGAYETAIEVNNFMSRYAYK

[2] = target: T2, AtPPO1 S305L Y426V (SEQ ID NO.125) (Arabidopsis thaliana, UniProt P55826, S305L/Y426V); experiment: as above; format: biochemical; conditions: read-out: percentage inhibition
T2 construct: made in house; host or cells: E. coli BL21 (DE3) hemG, crude extract
T2 sequence (P55826 35-537 S305L/Y426V): T1 sequence (P55826 35-537 S305L/Y361D/V365M) with D327Y, M331V, Y392V

Row | Structure (SMILES) | inhibition at 0.1 ppm [1] | inhibition at 1 ppm [1] | inhibition at 10 ppm [1] | inhibition at 100 ppm [1] | inhibition at 0.1 ppm [2] | inhibition at 1 ppm [2] | inhibition at 10 ppm [2] | inhibition at 100 ppm [2]
1 | CCOC(=O)C1(C)CC(c2cc(-n3c(=O)cc(C(F)(F)F)n(C)c3=O)c(F)cc2Cl)=NO1 (stereo not shown) [Herbicide C, 3-(2-chloro-4-fluoro-5-(3-methyl-2,6-dioxo-4-trifluoromethyl-3,6-dihydropyrimidin-1(2H)-yl)phenyl)-5-methyl-4,5-dihydroisoxazole-5-carboxylic acid ethyl ester] | 30% | 56% | 92% | 100% | 0% | 31% | 81% | 97%
2 | C#CCN1C(=O)C(F)(F)Oc2cc(F)c(-n3c(=O)n(C)c(=S)n(C)c3=O)cc21 [Herbicide B, trifludimoxazin] | 96% | 100% | 100% | 100% | 87% | 99% | 100% | 100%
3 | CCOC(=O)[C@]1(C)CC(c2cc(-n3c(=O)n(C)c(=S)n(C)c3=O)c(F)cc2Cl)=NO1 [Herbicide D, ethyl (5S)-3-[2-chloro-5-(3,5-dimethyl-2,6-dioxo-4-thioxo-1,3,5-triazinan-1-yl)-4-fluoro-phenyl]-5-methyl-4H-isoxazole-5-carboxylate] | 37% | 87% | 99% | 100% | 0% | 10% | 53% | 83%
4 | CCOC(=O)COc1ncccc1Oc1cc(-n2c(=O)cc(C(F)(F)F)n(C)c2=O)c(F)cc1Cl [Herbicide A, epyrifenacil] | 9% | 53% | 84% | 100% | 0% | 11% | 63% | 87%
5 | CC(C)N(C)S(=O)(=O)NC(=O)c1cc(-n2c(=O)cc(C(F)(F)F)n(C)c2=O)c(F)cc1Cl [Herbicide E, saflufenacil] | 0% | 10% | 76% | 88% | 0% | 2% | 50% | 84%
